In patent US7902252B2, “Inhibitors of D-amino acid oxidase” (Sepracor, Inc., priority 2007, dated 2011) one finds IC50 data, which are given here for 37 compounds.

Molecules are shown by their SMILES. Bounds are passed on as bounds.

Chain of Human DAAO (P14920 whole entry): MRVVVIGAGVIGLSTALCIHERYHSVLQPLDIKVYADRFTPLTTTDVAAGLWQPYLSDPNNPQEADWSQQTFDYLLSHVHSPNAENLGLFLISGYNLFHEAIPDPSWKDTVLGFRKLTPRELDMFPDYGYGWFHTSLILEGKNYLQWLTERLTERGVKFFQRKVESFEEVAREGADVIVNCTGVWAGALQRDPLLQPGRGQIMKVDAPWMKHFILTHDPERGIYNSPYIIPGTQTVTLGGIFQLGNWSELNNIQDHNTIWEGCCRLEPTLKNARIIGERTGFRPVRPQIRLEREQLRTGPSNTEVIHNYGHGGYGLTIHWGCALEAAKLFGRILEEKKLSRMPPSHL

This assay concerns the target Human DAAO (Homo sapiens, UniProt P14920). The assay can be described thus: D-Amino Acid Oxidase enzyme assay (D-serine, horseradish peroxidase/Amplex Red coupled fluorescence). The following applies: D-serine 5 mM, pH 7.4. The assay is classed as biochemical. As to the method: DAAO enzyme activity was measured using the substrate D-serine at its Michaelis-Menton Km of 5 mM. The rate of oxidation is measured as a rate of production of hydrogen peroxide, which was detected using the enzyme horseradish peroxidase (Sigma cat. No. P-8375). This coupled reaction uses the enzyme substrate Amplex Red (Molecular Probes), which is converted to the fluorescent reaction product, resorufin (excitation 530-560 nm; emission ˜590 nm). Although DAAO has a higher pH optimum, all reagents were prepared in 50 mM sodium phosphate buffer at pH 7.4 and inhibition curves were generated at this pH.
The final concentrations of components in 200 μl total volume per well (black clear-bottom 96-well plate, Costar) were:
(a) Horseradish peroxidase: 4 Units per mL
(d) Amplex Red reagent: 50 uM
The reactions were initiated by addition of DAAO enzyme and the fluorescence was monitored. H2O2 was added at 16 uM final concentration to a control well on each plate to test for compound interference with a coupled enzyme. Inhibition curves were generated in the presence of varying concentrations of the inhibitor and IC50 values were calculated for each inhibitor.
Compound `O=C(O)c1cc2c([nH]1)C(=Cc1ccccc1)CC2` (mixture of isomers) [Compound 25, (E/Z)-6-benzylidene-1,4,5,6-tetrahydrocyclopenta[b]pyrrole-2-carboxylic acid] gave an IC50 of at most 100 µM.

`CC1CCc2[nH]c(C(=O)O)cc21` (racemic) [Compound 4, 4-methyl-1,4,5,6-tetrahydrocyclopenta[b]pyrrole-2-carboxylic acid]: the IC50 is at most 1 µM.

With `CCCC1CCc2[nH]c(C(=O)O)cc21` (racemic) [Compound 7, 4-propyl-1,4,5,6-tetrahydrocyclopenta[b]pyrrole-2-carboxylic acid], the half-inhibitory concentration (IC50) is at most 0.1 µM.

On to `O=C(O)c1cc2c([nH]1)CCC2Cc1ccc(Cl)cc1` (racemic) [Compound 14, 4-(4-chlorobenzyl)-1,4,5,6-tetrahydrocyclopenta[b]pyrrole-2-carboxylic acid], for which the IC50 is at most 0.1 µM.

With `O=C(O)c1cc2c([nH]1)CCC2CCc1ccccc1` (racemic) [Compound 18, 4-phenethyl-1,4,5,6-tetrahydrocyclopenta[b]pyrrole-2-carboxylic acid], the IC50 is at most 1 µM.

For `O=C(O)c1cc2c([nH]1)CCC2Cc1ccc(F)c(F)c1` (racemic) [Compound 42, 4-(3,4-difluorobenzyl)-1,4,5,6-tetrahydrocyclopenta[b]pyrrole-2-carboxylic acid], the IC50 was at most 0.1 µM.

`O=C(O)c1cc2c([nH]1)CCC2Cc1ccc(F)cc1F` (racemic) [Compound 45, 4-(2,4-difluorobenzyl)-1,4,5,6-tetrahydrocyclopenta[b]pyrrole-2-carboxylic acid] gave an IC50 of at most 0.1 µM.

Regarding `O=C(O)c1cc2c([nH]1)CCC2Cc1ccc(F)c(Cl)c1` (racemic) [Compound 48, 4-(3-chloro-4-fluorobenzyl)-1,4,5,6-tetrahydrocyclopenta[b]pyrrole-2-carboxylic acid], the IC50 was at most 0.1 µM.

As for `Cc1cc(F)ccc1CC1CCc2[nH]c(C(=O)O)cc21` (racemic) [Compound 51, 4-(4-fluoro-2-methylbenzyl)-1,4,5,6-tetrahydrocyclopenta[b]pyrrole-2-carboxylic acid], the IC50 was at most 0.1 µM.

In turn, `O=C(O)c1cc2c([nH]1)CCC2Cc1ccc(Cl)c(Cl)c1` (racemic) [Compound 57, 4-(3,4-dichlorobenzyl)-1,4,5,6-tetrahydrocyclopenta[b]pyrrole-2-carboxylic acid] showed an IC50 of at most 0.1 µM.

With `O=C(O)c1cc2c([nH]1)CCC2Cc1ccc(Br)cc1` (racemic) [Compound 60, 4-(4-bromobenzyl)-1,4,5,6-tetrahydrocyclopenta[b]pyrrole-2-carboxylic acid], the IC50 is at most 0.1 µM.

Regarding `O=C(O)c1cc2c([nH]1)CCC2Cc1cccc(Br)c1` (racemic) [Compound 63, 4-(3-bromobenzyl)-1,4,5,6-tetrahydrocyclopenta[b]pyrrole-2-carboxylic acid], the IC50 is at most 0.1 µM.

`COc1cccc(CC2CCc3[nH]c(C(=O)O)cc32)c1` (racemic) [Compound 66, 4-(3-methoxybenzyl)-1,4,5,6-tetrahydrocyclopenta[b]pyrrole-2-carboxylic acid] displayed an IC50 of at most 0.1 µM.

`O=C(O)c1cc2c([nH]1)CCC2Cc1cccc(-c2ccco2)c1` (racemic) [Compound 87, 4-(3-(furan-2-yl)benzyl)-1,4,5,6-tetrahydrocyclopenta[b]pyrrole-2-carboxylic acid] gave an IC50 of at most 100 µM.

With `O=C(O)c1cc2c([nH]1)CCC2Cc1cccc(-c2ccc[nH]2)c1` (racemic) [Compound 91, 4-(3-(1H-pyrrol-2-yl)benzyl)-1,4,5,6-tetrahydrocyclopenta[b]pyrrole-2-carboxylic acid], the IC50 is at most 0.1 µM.

In turn, `O=C(O)c1cc2c([nH]1)CCC2c1cccc(F)c1` (racemic) [Compound 94, 4-(3-fluorophenyl)-1,4,5,6-tetrahydrocyclopenta[b]pyrrole-2-carboxylic acid] gave an IC50 of at most 0.1 µM.

`O=C(O)c1cc2c([nH]1)CCC2c1cc(F)cc(F)c1` (racemic) [Compound 98, 4-(3,5-difluorophenyl)-1,4,5,6-tetrahydrocyclopenta[b]pyrrole-2-carboxylic acid] returned an IC50 of at most 1 µM.

Consider `O=C(O)c1cc2c([nH]1)C(c1ccc(-c3ccccc3)cc1)CC2` (racemic) [Compound 118, 6-(biphenyl-4-yl)-1,4,5,6-tetrahydrocyclopenta[b]pyrrole-2-carboxylic acid], for which the IC50 is at most 1 µM.

Turning to `O=C(O)c1cc2c([nH]1)C(Cc1cccc(Cl)c1)CC2` (racemic) [Compound 121, 6-(3-chlorobenzyl)-1,4,5,6-tetrahydrocyclopenta[b]pyrrole-2-carboxylic acid], the IC50 is at most 0.1 µM.

Take `O=C(O)c1cc2c([nH]1)C(Cc1cccc(Br)c1)CC2` (racemic) [Compound 125, 6-(3-bromobenzyl)-1,4,5,6-tetrahydrocyclopenta[b]pyrrole-2-carboxylic acid]: the IC50 was at most 0.1 µM.

Take `COc1cccc(CC2CCc3cc(C(=O)O)[nH]c32)c1` (racemic) [Compound 129, 6-(3-methoxybenzyl)-1,4,5,6-tetrahydrocyclopenta[b]pyrrole-2-carboxylic acid]: the IC50 was at most 0.1 µM.

As for `O=C(O)c1cc2c([nH]1)C(CCCc1ccccc1)CC2` (racemic) [Compound 134, 6-(3-phenylpropyl)-1,4,5,6-tetrahydrocyclopenta[b]pyrrole-2-carboxylic acid], the IC50 is at most 1 µM.

The compound `C[C@H]1[C@H]2Cc3[nH]c(C(=O)O)cc3[C@@H]12` (racemic) [Compound 141, ±(1S,1aS,5aR)-1-methyl-1a,4,5,5a-tetrahydro-1H-4-aza-cyclopropa[α]pentalene-3-carboxylic acid] yielded an IC50 of at most 0.1 µM.

As to `O=C(O)c1cc2c([nH]1)C[C@@H]1[C@H](CCc3ccccc3)[C@H]21` (racemic) [Compound 143, ±(1S,1aS,5aR)-1-phenethyl-1a,4,5,5a-tetrahydro-1H-4-aza-cyclopropa[α]pentalene-3-carboxylic acid], the IC50 is at most 0.1 µM.

`O=C(O)c1cc2c([nH]1)C[C@@H]1[C@@H](c3ccccc3)[C@H]21` (racemic) [Compound 144, ±(1R,1aR,5aR)-1-phenyl-1a,4,5,5a-tetrahydro-1H-4-aza-cyclopropa[α]pentalene-3-carboxylic acid] registered an IC50 of at most 100 µM.

As to `CC1CCc2[nH]c(C(=O)O)cc21` (single isomer, unassigned) [Compound 5, 4-methyl-1,4,5,6-tetrahydrocyclopenta[b]pyrrole-2-carboxylic acid], the IC50 was at most 1 µM.

`CC1CCc2[nH]c(C(=O)O)cc21` (single isomer, unassigned) [Compound 6, 4-methyl-1,4,5,6-tetrahydrocyclopenta[b]pyrrole-2-carboxylic acid] registered an IC50 of at most 100 µM.

Regarding `CCCC1CCc2[nH]c(C(=O)O)cc21` (single isomer, unassigned) [Compound 9, 4-propyl-1,4,5,6-tetrahydrocyclopenta[b]pyrrole-2-carboxylic acid], the IC50 is at most 100 µM.

As to `O=C(O)c1cc2c([nH]1)CCC2Cc1ccc(Cl)cc1` (single isomer, unassigned) [Compound 15, 4-(4-chlorobenzyl)-1,4,5,6-tetrahydrocyclopenta[b]pyrrole-2-carboxylic acid], the IC50 is at most 0.1 µM.

`O=C(O)c1cc2c([nH]1)CCC2Cc1ccc(Cl)cc1` (single isomer, unassigned) [Compound 16, 4-(4-chlorobenzyl)-1,4,5,6-tetrahydrocyclopenta[b]pyrrole-2-carboxylic acid] displayed an IC50 of at most 100 µM.

Compound `O=C(O)c1cc2c([nH]1)CCC2CCc1ccccc1` (single isomer, unassigned) [Compound 19, 4-phenethyl-1,4,5,6-tetrahydrocyclopenta[b]pyrrole-2-carboxylic acid] registered an IC50 of at most 1 µM.

On to `O=C(O)c1cc2c([nH]1)CCC2CCc1ccccc1` (single isomer, unassigned) [Compound 20, 4-phenethyl-1,4,5,6-tetrahydrocyclopenta[b]pyrrole-2-carboxylic acid], for which the IC50 is at most 100 µM.

For `O=C(O)c1cc2c([nH]1)C(CCc1ccccc1)CC2` (single isomer, unassigned) [Compound 28, 6-phenethyl-1,4,5,6-tetrahydrocyclopenta[b]pyrrole-2-carboxylic acid], the IC50 was at most 1 µM.

Compound `O=C(O)c1cc2c([nH]1)C(CCc1ccccc1)CC2` (single isomer, unassigned) [Compound 29, 6-phenethyl-1,4,5,6-tetrahydrocyclopenta[b]pyrrole-2-carboxylic acid] registered an IC50 of at most 100 µM.

Consider `O=C(O)c1cc2c([nH]1)CCC2Cc1ccc(F)cc1` (single isomer, unassigned) [Compound 40, 4-(4-fluorobenzyl)-1,4,5,6-tetrahydrocyclopenta[b]pyrrole-2-carboxylic acid], for which the IC50 was at most 0.1 µM.

In turn, `O=C(O)c1cc2c([nH]1)CCC2Cc1ccc(F)cc1` (single isomer, unassigned) [Compound 41, 4-(4-fluorobenzyl)-1,4,5,6-tetrahydrocyclopenta[b]pyrrole-2-carboxylic acid] yielded an IC50 of at most 1 µM.

`O=C(O)c1cc2c([nH]1)CCC2Cc1ccc(F)c(F)c1` (single isomer, unassigned) [Compound 43, 4-(3,4-difluorobenzyl)-1,4,5,6-tetrahydrocyclopenta[b]pyrrole-2-carboxylic acid]: the IC50 was at most 100 µM.
